From patent publication US20200179487A1, “METHODS OF DIAGNOSIS AND TREATMENT OF PRE-ECLAMPSIA” (AGENCY FOR SCIENCE, TECHNOLOGY AND RESEARCH, priority 2016, published 2020)

Test system: APJ-expressing primary allantoic cultures
Experiment: Allantoic explants treated with ligands, digital droplet PCR of gene expression
Type: cell-based, mouse
Conditions: 2.5 μM, 12 hours, ddPCR, ELA versus APLN
Protocol: Allantoic explants were microdissected from 4-5 somite stage embryos on the morning of the 8th day of conception in dissection medium (DMEM+Hepes+7.5% FCS), and cultured in DMEM+NaHCO3+50% rat serum, on poly-L-lysine coated microwells (Ibidi). […] 12 hours later, the explants were harvested by direct lysis and RNA extracted with the Nucleospin RNA XS kit (Machery Nagel). cDNA was made using the SMARTer® Pico PCR cDNA Synthesis Kit (Clontech) and gene quantitation was performed using digital droplet PCR (Biorad) with EvaGreen and PrimeTime probes listed below: […]

Substance: APLN: APLN-36 (Sigma); Apelin, the alternate ligand for APJ (LVQPRGSRNGPGPWQGGRRKFRRQRPRLSHKGPMPF; Apelin-36; UniProt Q9ULZ1 42-77, looked up)
- expression of hypoxic response genes (Foxoa3 and Hif3α): opposite effects
- expression of Esm1: opposite effects
